# Patent US10675254B2, “Sphingosine-1-phosphate receptor agonist iontophoretic devices and methods of using the same” (Teikoku Seiyaku Co., Ltd., priority 2013, dated 2020)
# Where a name gives a salt, the structure may show the parent alone.
# How the values were obtained:
# [1] = orally administered fingolimod HCl; cited from earlier work
# [2] = In vitro iontophoretic delivery (active + passive) of Fingolimod HCl through epidermis of cadaver skin, Franz cell; assay type: in vitro ADME; conditions: for Active + passive Maximum delivery efficiency: donor 0.5% Fingolimod HCl solution, 8 hr; for Active + passive Maximum delivery efficiency / Active + passive Average delivery efficiency: 0.425 mA, 1.77 cm2; for Active + passive Average delivery efficiency: Ag anode/AgCl cathode, 48 hr
# [3] = In vitro passive delivery of Fingolimod HCl through epidermis of cadaver skin, Franz cell (control); assay type: in vitro ADME; conditions: for Passive Maximum delivery efficiency: donor 0.5% Fingolimod HCl solution, 8 hr; for Passive Maximum delivery efficiency / Passive Average delivery efficiency: 1.77 cm2; for Passive Average delivery efficiency: 48 hr
# Source text: Passive delivery under the same experimental conditions was also concurrently investigated with the iontophoretic delivery and employed as a control. […] The maximum efficiency could be reached at a concentration of less than 0.25%. After 8 hr., some passive delivery of fingolimod HCl through the skin was also observed. This observation may have resulted from the imperfection of the skin and the experimental design. In this study, the presence of pores from the micro-sized damage of the epidermis during the preparation of the epidermal membrane and from the appendages (hair follicles, sweat ducts) might facilitate the contact between donor and receptor site and contribute to the passive delivery of fingolimod HCl solution into the receptor solution.
# [4] = donor 0.25% fingolimod HCl solution, receptor 0.09% NaCl
# [5] = donor 0.50% fingolimod HCl solution, receptor 0.09% NaCl
# [6] = donor 0.75% fingolimod HCl solution, receptor 0.09% NaCl
# [7] = donor 1% fingolimod HCl solution, receptor 0.09% NaCl
# [8] = donor 2% fingolimod HCl solution, receptor 0.09% NaCl
smiles,measurement,setting,value
"CCCCCCCCc1ccc(CCC(N)(CO)CO)cc1 [Fingolimod HCl, 2-amino-2-[2-(4-octylphenyl)ethyl]propane-1,3-diol]","peak to trough fluctuations, non-phosphorylated fingolimod",[1],≤ 20%
same,"peak to trough fluctuations, phosphorylated (active) form of fingolimod",[1],≤ 45%
same,delivery efficiency (active+passive),"[2]; 0.25, 0.5, 0.75, 1 and 2% fingolimod HCl solutions, current 0.425 mA, area 1.77 cm^2",about 4.5 μg/cm2/hr
same,Active + passive Maximum delivery efficiency,"[2]; Ag/AgCl electrodes, receptor 0.9% NaCl",5.0 ug/cm2/hr
same,Active + passive Maximum delivery efficiency,"[2]; Zn/AgCl electrodes, receptor 0.09% NaCl",16.8 ug/cm2/hr
same,Active + passive Maximum delivery efficiency,"[2]; Zn/AgCl electrodes, receptor 0.9% NaCl",5.8 ug/cm2/hr
same,Active + passive Average delivery efficiency,[2]; [4],4.8 ug/cm2/hr
same,Active + passive Average delivery efficiency,[2]; [5],5.0 ug/cm2/hr
same,Active + passive Average delivery efficiency,[2]; [6],4.5 ug/cm2/hr
same,Active + passive Average delivery efficiency,[2]; [7],4.5 ug/cm2/hr
same,Active + passive Average delivery efficiency,[2]; [8],4.2 ug/cm2/hr
same,Passive Maximum delivery efficiency,[3]; receptor 0.09% NaCl,0 ug/cm2/hr
same,Passive Maximum delivery efficiency,[3]; receptor 0.9% NaCl,0 ug/cm2/hr
same,Passive Average delivery efficiency,[3]; [4],0.8 ug/cm2/hr
same,Passive Average delivery efficiency,[3]; [5],0.9 ug/cm2/hr
same,Passive Average delivery efficiency,[3]; [6],0.8 ug/cm2/hr
same,Passive Average delivery efficiency,[3]; [7],0.7 ug/cm2/hr
same,Passive Average delivery efficiency,[3]; [8],1.4 ug/cm2/hr
same,passive delivery detected,"[3]; over an 8 h period, 0.5% Fingolimod HCl solution",no Fingolimod HCl delivery was detected
